Data reported in ChEMBL document CHEMBL5150062, “Computational design, synthesis and biological evaluation of PDE5 inhibitors based on N2,N4-diaminoquinazoline and N2,N6-diaminopurine scaffolds” (Bioorg Med Chem, 2022).
≈ marks a conversion by molar mass, not a printed value.

system: not listed separately; assay: Selectivity index, ratio of IC50 for inhibition of bovine heart PDE1to IC50 for inhibition of human PDE5; settings: not given

Structure (SMILES) | Ratio IC50
NS(=O)(=O)c1cccc(Nc2nc(NCc3ccccc3)c3ccccc3n2)c1 | 100

system: not listed separately; assay: 1-Octanol/PBS partition coefficient, logD of the compound at pH 7.4 incubated for 7 hrs by shake flask technique based HPLC-UV analysis; type: physicochemical; settings: not given

Structure (SMILES) | logD at 7 h
CCCc1nn(C)c2c(=O)[nH]c(-c3cc(S(=O)(=O)N4CCN(C)CC4)ccc3OCC)nc12 | 2.69
CCCNc1nc(Nc2ccc(S(=O)(=O)N3CCN(C)CC3)cc2)nc2ccccc12 | 3.92
CC(C)CNc1nc(Nc2cccc(S(=O)(=O)N3CCN(C)CC3)c2)nc2ccccc12 | 3.55
CC(C)N1CCC(Nc2nc(Nc3cccc(S(=O)(=O)N4CCN(C)CC4)c3)nc3ccccc23)CC1 | 2.15
CC(C)CNc1nc(Nc2ccc(S(=O)(=O)N3CCN(C)CC3)cc2)nc2ccccc12 | 3.68
NS(=O)(=O)c1cccc(Nc2nc(NC3CCN(Cc4ccccc4)CC3)c3ccccc3n2)c1 | 3.37
NS(=O)(=O)c1cccc(Nc2nc(NCc3ccccc3)c3ccccc3n2)c1 | 3.87
NS(=O)(=O)c1cccc(Nc2nc(NC3CCN(Cc4ccccc4)CC3)c3nc[nH]c3n2)c1 | 2.16

molecular target: T1, cGMP-specific 3',5'-cyclic phosphodiesterase (Homo sapiens, UniProt O76074); assay: Inhibition of human PDE5 using [3H]cGMP as substrate at 1 uM incubated for 10 mins by liquid scintillation counter analysis relative to control; settings: not given

Structure (SMILES) | inhibition [%]
COc1cc2nc(Nc3cccc(S(N)(=O)=O)c3)nc(NC3CCN(C(C)C)CC3)c2cc1OC | 79.3
CCCNc1nc(Nc2cccc(S(=O)(=O)N3CCN(C)CC3)c2)nc2ccccc12 | 96.9
CN1CCN(S(=O)(=O)c2cccc(Nc3nc(NCc4ccccc4)c4ncn(C)c4n3)c2)CC1 | 69
CCCNc1nc(Nc2cccc(S(=O)(=O)N3CCN(C)CC3)c2)nc2c1ncn2C | 93.6
COc1cc2nc(Nc3cccc(S(N)(=O)=O)c3)nc(NCC(C)C)c2cc1OC | 94.9
CN(C)CCNc1nc(Nc2cccc(S(N)(=O)=O)c2)nc2ccccc12 | 72.2
Cn1cnc2c(NCc3ccccc3)nc(Nc3cccc(S(N)(=O)=O)c3)nc21 | 86.1
COc1cc2nc(Nc3cccc(S(=O)(=O)N4CCN(C)CC4)c3)nc(NC3CCN(C(C)C)CC3)c2cc1OC | 18.5
CN1CCN(S(=O)(=O)c2cccc(Nc3nc(NCc4ccccc4)c4nc[nH]c4n3)c2)CC1 | 99.3
CC(C)N1CCC(Nc2nc(Nc3cccc(S(N)(=O)=O)c3)nc3ccccc23)CC1 | 96.3
CCCNc1nc(Nc2ccc(S(=O)(=O)N3CCN(C)CC3)cc2)nc2ccccc12 | 95.6
CC(C)N1CCC(Nc2nc(Nc3cccc(S(N)(=O)=O)c3)nc3[nH]cnc23)CC1 | 32.7
CN1CCN(S(=O)(=O)c2cccc(Nc3nc(NCc4ccccc4)c4ccccc4n3)c2)CC1 | 98.3
CC(C)CNc1nc(Nc2cccc(S(=O)(=O)N3CCN(C)CC3)c2)nc2ccccc12 | 97.3
CC(C)CNc1nc(Nc2cccc(S(=O)(=O)N3CCN(C)CC3)c2)nc2c1ncn2C | 91.8
CC(C)N1CCC(Nc2nc(Nc3cccc(S(=O)(=O)N4CCN(C)CC4)c3)nc3ccccc23)CC1 | 93.6
CCCNc1nc(Nc2cccc(S(N)(=O)=O)c2)nc2cc(OC)c(OC)cc12 | 91.6
CC(C)CNc1nc(Nc2ccc(S(=O)(=O)N3CCN(C)CC3)cc2)nc2ccccc12 | 99
CCCNc1nc(Nc2ccc(S(=O)(=O)N3CCN(C)CC3)cc2)nc2c1ncn2C | 93.6
CN(C)CCNc1nc(Nc2cccc(S(=O)(=O)N3CCN(C)CC3)c2)nc2ccccc12 | 75.3
CN1CCN(S(=O)(=O)c2ccc(Nc3nc(NCc4ccccc4)c4ncn(C)c4n3)cc2)CC1 | 97.3
CC(C)CNc1nc(Nc2ccc(S(=O)(=O)N3CCN(C)CC3)cc2)nc2c1ncn2C | 96
NS(=O)(=O)c1cccc(Nc2nc(NC3CCN(Cc4ccccc4)CC3)c3ccccc3n2)c1 | 93.4
Cn1cnc2c(NCc3ccccc3)nc(Nc3ccc(S(N)(=O)=O)cc3)nc21 | 96.5
NS(=O)(=O)c1cccc(Nc2nc(NCc3ccccc3)c3ccccc3n2)c1 | 101
COc1cc2nc(Nc3cccc(S(N)(=O)=O)c3)nc(NC3CCN(Cc4ccccc4)CC3)c2cc1OC | 93.7
CN1CCN(S(=O)(=O)c2ccc(Nc3nc(NCc4ccccc4)c4ccccc4n3)cc2)CC1 | 96.5
COc1cc2nc(Nc3ccc(S(N)(=O)=O)cc3)nc(NCC(C)C)c2cc1OC | 94.6
CN1CCN(S(=O)(=O)c2cccc(Nc3nc(NCc4cccs4)c4ccccc4n3)c2)CC1 | 93.9
NS(=O)(=O)c1cccc(Nc2nc(NC3CCN(Cc4ccccc4)CC3)c3nc[nH]c3n2)c1 | 94.3

system: not listed separately; assay: Inhibition of bovine heart PDE1 using [3H]cGMP as substrate incubated for 10 mins by liquid scintillation counter analysis; parameters: species or system Bos taurus; settings: not given

Structure (SMILES) | IC50 [nM]
NS(=O)(=O)c1cccc(Nc2nc(NCc3ccccc3)c3ccccc3n2)c1 | 11800

molecular target: T1, cGMP-specific 3',5'-cyclic phosphodiesterase; assay: Inhibition of human PDE5 using [3H]cGMP as substrate incubated for 10 mins by liquid scintillation counter analysis; settings: not given

Structure (SMILES) | IC50 [nM]
COc1cc2nc(Nc3cccc(S(N)(=O)=O)c3)nc(NC3CCN(C(C)C)CC3)c2cc1OC | 3410
CCCNc1nc(Nc2cccc(S(=O)(=O)N3CCN(C)CC3)c2)nc2ccccc12 | 600
CCCNc1nc(Nc2cccc(S(=O)(=O)N3CCN(C)CC3)c2)nc2c1ncn2C | 43200
COc1cc2nc(Nc3cccc(S(N)(=O)=O)c3)nc(NCC(C)C)c2cc1OC | 5230
CN(C)CCNc1nc(Nc2cccc(S(N)(=O)=O)c2)nc2ccccc12 | 9390
Cn1cnc2c(NCc3ccccc3)nc(Nc3cccc(S(N)(=O)=O)c3)nc21 | 4460
CN1CCN(S(=O)(=O)c2cccc(Nc3nc(NCc4ccccc4)c4nc[nH]c4n3)c2)CC1 | 2020
CC(C)N1CCC(Nc2nc(Nc3cccc(S(N)(=O)=O)c3)nc3ccccc23)CC1 | 1030
CCCNc1nc(Nc2ccc(S(=O)(=O)N3CCN(C)CC3)cc2)nc2ccccc12 | 410
CN1CCN(S(=O)(=O)c2cccc(Nc3nc(NCc4ccccc4)c4ccccc4n3)c2)CC1 | 500
CC(C)CNc1nc(Nc2cccc(S(=O)(=O)N3CCN(C)CC3)c2)nc2ccccc12 | 430
CC(C)CNc1nc(Nc2cccc(S(=O)(=O)N3CCN(C)CC3)c2)nc2c1ncn2C | 33300
CC(C)N1CCC(Nc2nc(Nc3cccc(S(=O)(=O)N4CCN(C)CC4)c3)nc3ccccc23)CC1 | 150
CCCNc1nc(Nc2cccc(S(N)(=O)=O)c2)nc2cc(OC)c(OC)cc12 | 1440
CC(C)CNc1nc(Nc2ccc(S(=O)(=O)N3CCN(C)CC3)cc2)nc2ccccc12 | 360
CCCNc1nc(Nc2ccc(S(=O)(=O)N3CCN(C)CC3)cc2)nc2c1ncn2C | 18900
CN(C)CCNc1nc(Nc2cccc(S(=O)(=O)N3CCN(C)CC3)c2)nc2ccccc12 | 5280
CN1CCN(S(=O)(=O)c2ccc(Nc3nc(NCc4ccccc4)c4ncn(C)c4n3)cc2)CC1 | 38400
CC(C)CNc1nc(Nc2ccc(S(=O)(=O)N3CCN(C)CC3)cc2)nc2c1ncn2C | 28500
NS(=O)(=O)c1cccc(Nc2nc(NC3CCN(Cc4ccccc4)CC3)c3ccccc3n2)c1 | 220
Cn1cnc2c(NCc3ccccc3)nc(Nc3ccc(S(N)(=O)=O)cc3)nc21 | 23000
NS(=O)(=O)c1cccc(Nc2nc(NCc3ccccc3)c3ccccc3n2)c1 | 100
COc1cc2nc(Nc3cccc(S(N)(=O)=O)c3)nc(NC3CCN(Cc4ccccc4)CC3)c2cc1OC | 1640
CN1CCN(S(=O)(=O)c2ccc(Nc3nc(NCc4ccccc4)c4ccccc4n3)cc2)CC1 | 490
COc1cc2nc(Nc3ccc(S(N)(=O)=O)cc3)nc(NCC(C)C)c2cc1OC | 3970
CN1CCN(S(=O)(=O)c2cccc(Nc3nc(NCc4cccs4)c4ccccc4n3)c2)CC1 | 520
NS(=O)(=O)c1cccc(Nc2nc(NC3CCN(Cc4ccccc4)CC3)c3nc[nH]c3n2)c1 | 290

species on record: Bos taurus; assay: Inhibition of bovine heart PDE1 using [3H]cGMP as substrate at 10 uM incubated for 10 mins by liquid scintillation counter analysis relative to control; settings: not given

Structure (SMILES) | inhibition [%]
CCCNc1nc(Nc2ccc(S(=O)(=O)N3CCN(C)CC3)cc2)nc2ccccc12 | 46.8
CC(C)CNc1nc(Nc2cccc(S(=O)(=O)N3CCN(C)CC3)c2)nc2ccccc12 | 67.2
CC(C)N1CCC(Nc2nc(Nc3cccc(S(=O)(=O)N4CCN(C)CC4)c3)nc3ccccc23)CC1 | 28.2
CC(C)CNc1nc(Nc2ccc(S(=O)(=O)N3CCN(C)CC3)cc2)nc2ccccc12 | 44.8
NS(=O)(=O)c1cccc(Nc2nc(NC3CCN(Cc4ccccc4)CC3)c3ccccc3n2)c1 | 61.7
NS(=O)(=O)c1cccc(Nc2nc(NCc3ccccc3)c3ccccc3n2)c1 | 73.9
NS(=O)(=O)c1cccc(Nc2nc(NC3CCN(Cc4ccccc4)CC3)c3nc[nH]c3n2)c1 | 31.2

system: not listed separately; assay: Aqueous solubility of the compound in pH 7.4 PBS measured after 7 hrs by HPLC-UV analysis; type: physicochemical; settings: PBS, pH 7.4

Structure (SMILES) | solubility at 7 h [µg/mL]
CCCNc1nc(Nc2ccc(S(=O)(=O)N3CCN(C)CC3)cc2)nc2ccccc12 | 0.1 (≈ 0.227 µM)
CC(C)CNc1nc(Nc2cccc(S(=O)(=O)N3CCN(C)CC3)c2)nc2ccccc12 | 0.6 (≈ 1.32 µM)
CC(C)N1CCC(Nc2nc(Nc3cccc(S(=O)(=O)N4CCN(C)CC4)c3)nc3ccccc23)CC1 | 1770 (≈ 3380 µM)
CC(C)CNc1nc(Nc2ccc(S(=O)(=O)N3CCN(C)CC3)cc2)nc2ccccc12 | 3 (≈ 6.6 µM)
NS(=O)(=O)c1cccc(Nc2nc(NC3CCN(Cc4ccccc4)CC3)c3ccccc3n2)c1 | 4.2 (≈ 8.6 µM)
NS(=O)(=O)c1cccc(Nc2nc(NCc3ccccc3)c3ccccc3n2)c1 | 2.1 (≈ 5.18 µM)
NS(=O)(=O)c1cccc(Nc2nc(NC3CCN(Cc4ccccc4)CC3)c3nc[nH]c3n2)c1 | 150 (≈ 313 µM)

same assay, conditions: buffer, pH 7.4, 7 h

Structure (SMILES) | solubility [µg/mL]
CCCc1nn(C)c2c(=O)[nH]c(-c3cc(S(=O)(=O)N4CCN(C)CC4)ccc3OCC)nc12 | 180 (≈ 379 µM)
